For 4 molecules, MIC results are on record in patent US6884774B2, “Cyclic hexapeptide derivatives” (Fujisawa Pharmaceutical Co. Ltd., priority 2000, dated 2005).

For orientation: MIC means the lowest concentration that inhibits growth of the organism.

Starred links: 1 amine or outer side, 2 acyl side, 3 side chain; linkers in the order of their positions; H or OH if unused. Positions of bridges follow the written chain, without caps; N, C: chain ends. Non-standard residues stand in square brackets, D forms with d. Residues, ends and D or L forms follow the SMILES beside them. *: point of attachment. X2 = C[C@H]1CC[C@@H](N2CCN(c3ccc(-c4nnc(-c5ccc(C(=O)*)cc5)s4)cc3)CC2)CC1; hTyr(3R-OH,3'-OSO3H) = N[C@H](C(=O)O)[C@H](O)Cc1ccc(O)c(OS(=O)(=O)O)c1; X3 = COCCCCCOC1CCN(c2ccc(-c3nn4cc(-c5ccc(C(=O)*)cc5)nc4s3)cc2)CC1; Orn(3R-OH,Nδ-CH(CH2OH)2) = N[C@H](C(=O)O)[C@H](O)CCNC(CO)CO; X4 = COCCCCOc1ccc(-c2nn3cc(-c4ccc(C(=O)*)cc4)nc3s2)cc1; Orn(4R-OH) = O=C([C@H](C[C@@H](O)CN[*:3])N[*:1])[*:2]; X1 = COCCCCCCOc1ccc(-c2cc(-c3ccc(C(=O)*)cc3)no2)cc1; Pro(3S-OH,4S-Me) = C[C@H]1CN[C@H](C(=O)O)[C@H]1O; Hyp = O=C(O)[C@@H]1C[C@@H](O)CN1

The test system of the experiment is Candida albicans FP-633. It is filed as cell-based. The conditions noted are these: FP-633, 24 h, pH 7.3. Here is the method: In vitro antimicrobial activity of the object compound of Examples 4, 9, 25 and 30 disclosed later was determined by MICs in mouse serum as described below. The MICs in mouse serum were determined by the microdilution method using ICR mouse serum buffered with 20 mM HEPES buffer (pH 7.3) as a test medium. Inoculum suspension of 10^6 cells/ml were prepared by a hemocytometric procedure and diluted to obtain an inoculum size of approximately 1.0×10^3 cells/ml. Microplates were incubated at 37° C. for 24 hours in 5% CO2. The MICs were defined as the lowest concentrations at which no visible growth was observed.
`COCCCCOc1ccc(-c2nn3cc(-c4ccc(C(=O)N[C@H]5C[C@@H](O)CNC(=O)[C@@H]6[C@@H](O)[C@@H](C)CN6C(=O)[C@H]([C@H](O)CCNC(CO)CO)NC(=O)[C@H]([C@H](O)Cc6ccc(O)c(OS(=O)(=O)O)c6)NC(=O)[C@@H]6C[C@@H](O)CN6C(=O)[C@H]([C@@H](C)O)NC5=O)cc4)nc3s2)cc1` [Example 30] (X4-[Orn(4R-OH)]T[Hyp][hTyr(3R-OH,3'-OSO3H)][Orn(3R-OH,Nδ-CH(CH2OH)2)][Pro(3S-OH,4S-Me)]; lactam 1-C): the minimal inhibitory concentration (MIC) is <0.3 µg/mL.

`COCCCCCCOc1ccc(-c2cc(-c3ccc(C(=O)N[C@H]4C[C@@H](O)CNC(=O)[C@@H]5[C@@H](O)[C@@H](C)CN5C(=O)[C@H]([C@H](O)CCNC(CO)CO)NC(=O)[C@H]([C@H](O)Cc5ccc(O)c(OS(=O)(=O)O)c5)NC(=O)[C@@H]5C[C@@H](O)CN5C(=O)[C@H]([C@@H](C)O)NC4=O)cc3)no2)cc1` [Example 25] (X1-[Orn(4R-OH)]T[Hyp][hTyr(3R-OH,3'-OSO3H)][Orn(3R-OH,Nδ-CH(CH2OH)2)][Pro(3S-OH,4S-Me)]; lactam 1-C): the minimal inhibitory concentration (MIC) was <0.3 µg/mL. Consider `COCCCCCOC1CCN(c2ccc(-c3nn4cc(-c5ccc(C(=O)N[C@H]6C[C@@H](O)CNC(=O)[C@@H]7[C@@H](O)[C@@H](C)CN7C(=O)[C@H]([C@H](O)CCNC(CO)CO)NC(=O)[C@H]([C@H](O)Cc7ccc(O)c(OS(=O)(=O)O)c7)NC(=O)[C@@H]7C[C@@H](O)CN7C(=O)[C@H]([C@@H](C)O)NC6=O)cc5)nc4s3)cc2)CC1` [Example 4] (X3-[Orn(4R-OH)]T[Hyp][hTyr(3R-OH,3'-OSO3H)][Orn(3R-OH,Nδ-CH(CH2OH)2)][Pro(3S-OH,4S-Me)]; lactam 1-C), for which the MIC is <0.3 µg/mL.

Turning to `C[C@@H](O)[C@@H]1NC(=O)[C@@H](NC(=O)c2ccc(-c3nnc(-c4ccc(N5CCN([C@H]6CC[C@@H](C)CC6)CC5)cc4)s3)cc2)C[C@@H](O)CNC(=O)[C@@H]2[C@@H](O)[C@@H](C)CN2C(=O)[C@H]([C@H](O)CCNC(CO)CO)NC(=O)[C@H]([C@H](O)Cc2ccc(O)c(OS(=O)(=O)O)c2)NC(=O)[C@@H]2C[C@@H](O)CN2C1=O` [Example 9] (X2-[Orn(4R-OH)]T[Hyp][hTyr(3R-OH,3'-OSO3H)][Orn(3R-OH,Nδ-CH(CH2OH)2)][Pro(3S-OH,4S-Me)]; lactam 1-C), the MIC is <0.3 µg/mL.
